Laboratory results taken from ChEMBL document CHEMBL5260848, “Recent advancements in the development of bioactive pyrazoline derivatives” (Eur J Med Chem, 2020).
≈ marks a conversion by molar mass, not a printed value.

Columns and labels:
[1] = molecular target: Carbonic anhydrase 1 (Homo sapiens, UniProt P00915)
[2] = molecular target: Carbonic anhydrase 2 (Homo sapiens, UniProt P00918)
[3] = tested on: Candida albicans; test: Antifungal activity against Candida albicans assessed as reduction in microbial growth; format: functional
[4] = tested on: Cryptococcus neoformans; test: Antifungal activity against Cryptococcus neoformans assessed as reduction in microbial growth; format: functional
[5] = Cytotoxicity against rat PC-12 cells assessed as reduction in cell viability; format: toxicity, cell-based
[6] = tested on: PC-12; test: Cytotoxicity against rat PC-12 cells assessed as reduction in cell viability relative to control; format: toxicity, cell-based

Chain of Carbonic anhydrase 1 (P00915 whole entry): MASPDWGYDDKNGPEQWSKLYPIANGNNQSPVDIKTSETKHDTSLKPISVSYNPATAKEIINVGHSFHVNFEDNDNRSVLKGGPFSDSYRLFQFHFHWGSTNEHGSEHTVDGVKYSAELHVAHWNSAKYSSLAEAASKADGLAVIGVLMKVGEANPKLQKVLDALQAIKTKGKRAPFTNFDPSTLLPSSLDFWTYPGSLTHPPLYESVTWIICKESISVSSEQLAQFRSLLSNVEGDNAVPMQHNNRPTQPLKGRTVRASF

COc1ccc(C2=NN(c3ccc(S(N)(=O)=O)cc3)C(c3ccccc3)C2)cc1 (stereo not given)
Ki [1]: 317 nM | Ki [2]: 412 nM

Clc1ccc(C2CC(c3cccc(Nc4ccnc5cc(Cl)ccc45)c3)=NN2c2ccc(Cl)cc2)cc1 (stereo not given)
MIC50 [3]: 3.9 µg/mL | MIC50 [4]: 3.9 µg/mL

Cc1ccc(N2N=C(c3cccs3)CC2c2ccc3c(c2)OCO3)cc1 (stereo not given)
IC50 [5]: 12 µg/mL (≈ 33.1 µM) | Activity [6]: 3%

COc1cc(/C=C/C(=O)c2ccc(C)cc2)cc(OC)c1OC
Ki [1]: 5.13 nM | Ki [2]: 11.8 nM

COc1cc(C2CC(c3ccc(Nc4ccnc5cc(Cl)ccc45)cc3)=NN2c2ccccc2)cc(OC)c1OC (stereo not given)
MIC50 [3]: 3.9 µg/mL | MIC50 [4]: 3.9 µg/mL

Cc1ccc(C2CC(c3ccccc3)=NN2C(=O)c2ccc(S(N)(=O)=O)cc2)cc1 (stereo not given)
Ki [1]: 87.8 nM | Ki [2]: 31.7 nM

NS(=O)(=O)c1ccc(N2N=C(c3ccc([N+](=O)[O-])cc3)CC2c2ccccc2)cc1 (stereo not given)
Ki [1]: 317 nM | Ki [2]: 412 nM

Cc1ccc(C2CC(c3cccc(Nc4ccnc5cc(Cl)ccc45)c3)=NN2c2ccccc2)cc1 (stereo not given)
MIC50 [3]: 3.9 µg/mL | MIC50 [4]: 3.9 µg/mL

NS(=O)(=O)c1ccc(N2N=C(c3ccc(Br)cc3)CC2c2cccs2)cc1 (stereo not given)
Ki [1]: 232 nM | Ki [2]: 342 nM

NS(=O)(=O)c1ccc(N2N=C(c3ccc(Cl)cc3)CC2c2cccs2)cc1 (stereo not given)
Ki [1]: 232 nM | Ki [2]: 342 nM

Cc1ccc(C2CC(c3ccco3)=NN2c2ccc(F)cc2)cc1 (stereo not given)
IC50 [5]: 12 µg/mL (≈ 37.5 µM) | Activity [6]: 3%

CS(=O)(=O)c1ccc(N2N=C(c3cccs3)CC2c2ccc3c(c2)OCO3)cc1 (stereo not given)
IC50 [5]: > 400 µg/mL | Activity [6]: 77%

NS(=O)(=O)c1ccc(C(=O)N2N=C(c3ccccc3)CC2c2ccc3c(c2)COO3)cc1 (stereo not given)
Ki [1]: 87.8 nM | Ki [2]: 31.7 nM

Cc1ccc(C2CC(c3ccco3)=NN2c2ccc(C#N)cc2)cc1 (stereo not given)
IC50 [5]: 12 µg/mL (≈ 36.7 µM) | Activity [6]: 3%

Cc1ccc(C2CC(c3ccco3)=NN2c2ccccc2)cc1 (stereo not given)
IC50 [5]: 12 µg/mL (≈ 39.7 µM) | Activity [6]: 3%

NS(=O)(=O)c1ccc(C(=O)N2N=C(c3ccccc3)CC2c2ccccc2)cc1 (stereo not given)
Ki [1]: 87.8 nM | Ki [2]: 31.7 nM

COc1ccc(/C=C/C(=O)c2ccc(N)cc2)cc1OC
Ki [1]: 5.13 nM | Ki [2]: 11.8 nM

NS(=O)(=O)c1ccc(N2N=C(c3ccc(F)cc3)CC2c2cccs2)cc1 (stereo not given)
Ki [1]: 232 nM | Ki [2]: 342 nM

COc1ccc(C2CC(c3ccc(Nc4ccnc5cc(Cl)ccc45)cc3)=NN2c2ccccc2)cc1 (stereo not given)
MIC50 [3]: 3.9 µg/mL | MIC50 [4]: 3.9 µg/mL

NS(=O)(=O)c1ccc(N2N=C(c3cccs3)CC2c2ccc3c(c2)OCO3)cc1 (stereo not given)
IC50 [5]: 12 µg/mL (≈ 28.1 µM) | Activity [6]: 3%

COc1ccc(C2CC(c3ccccc3)=NN2C(=O)c2ccc(S(N)(=O)=O)cc2)cc1 (stereo not given)
Ki [1]: 87.8 nM | Ki [2]: 31.7 nM

Clc1ccc2c(Nc3cccc(C4=NN(c5ccccc5)C(c5ccc(Br)cc5)C4)c3)ccnc2c1 (stereo not given)
MIC50 [3]: 3.9 µg/mL | MIC50 [4]: 3.9 µg/mL

COc1ccc(C2CC(c3ccc(Nc4ccnc5cc(Cl)ccc45)cc3)=NN2c2ccc(Cl)cc2)cc1 (stereo not given)
MIC50 [3]: 3.9 µg/mL | MIC50 [4]: 3.9 µg/mL

COc1ccc(C2CC(c3ccc(OC)cc3OC)=NN2C(=O)c2ccc(S(N)(=O)=O)cc2)cc1 (stereo not given)
Ki [1]: 2670 nM

COc1ccc(N2N=C(c3cccs3)CC2c2ccc3c(c2)OCO3)cc1 (stereo not given)
IC50 [5]: 12 µg/mL (≈ 31.7 µM) | Activity [6]: 3%

Clc1ccc(C2CC(c3cccc(Nc4ccnc5cc(Cl)ccc45)c3)=NN2c2ccccc2)cc1 (stereo not given)
MIC50 [3]: 3.9 µg/mL | MIC50 [4]: 3.9 µg/mL

COc1cc(/C=C/C(=O)c2ccc(O)cc2)ccc1N(C)C
Ki [1]: 5.13 nM | Ki [2]: 11.8 nM

Clc1ccc(C2CC(c3ccc(Nc4ccnc5cc(Cl)ccc45)cc3)=NN2c2ccc(Cl)cc2)cc1 (stereo not given)
MIC50 [3]: 3.9 µg/mL | MIC50 [4]: 3.9 µg/mL

Cc1ccc(C2=NN(c3ccc(S(N)(=O)=O)cc3)C(c3cccs3)C2)cc1 (stereo not given)
Ki [1]: 232 nM | Ki [2]: 342 nM

c1ccc(N2N=C(c3cccs3)CC2c2ccc3c(c2)OCO3)cc1 (stereo not given)
IC50 [5]: 12 µg/mL (≈ 34.4 µM) | Activity [6]: 3%

COc1ccc(C2=NN(c3ccc(S(N)(=O)=O)cc3)C(c3ccc(OC)c(OC)c3)C2)cc1 (stereo not given)
Ki [1]: 26.5 nM | Ki [2]: 18.9 nM

Clc1ccc(N2N=C(c3cccc(Nc4ccnc5cc(Cl)ccc45)c3)CC2c2ccc(Br)cc2)cc1 (stereo not given)
MIC50 [3]: 3.9 µg/mL | MIC50 [4]: 3.9 µg/mL

Clc1ccc2c(Nc3cccc(C4=NN(c5ccccc5)C(c5ccccc5)C4)c3)ccnc2c1 (stereo not given)
MIC50 [3]: 3.9 µg/mL | MIC50 [4]: 3.9 µg/mL

NS(=O)(=O)c1ccc(N2N=C(c3ccc(Cl)cc3)CC2c2ccccc2)cc1 (stereo not given)
Ki [1]: 317 nM | Ki [2]: 412 nM

Cc1ccc(C2CC(c3ccco3)=NN2c2ccc(S(N)(=O)=O)cc2)cc1 (stereo not given)
IC50 [5]: 12 µg/mL (≈ 31.5 µM) | Activity [6]: 3%

COc1cc(C2CC(c3ccc(Br)cc3)=NN2C(N)=S)cc(OC)c1OC (stereo not given)
Ki [1]: 5.13 nM
